Results: patent EP0188887A1, “Tertiary amine compounds” (IMPERIAL CHEMICAL INDUSTRIES PLC, priority 1985, dated 1986)

Legend:
Format in all cases: in vivo
[1] = system: CERCOSPORA ARACHIDICOLA (PEANUT); assay: Foliar fungal disease test on plants (foliar spray plus root drench), Cercospora arachidicola on peanut; conditions: 100 ppm active ingredient sprayed on foliage, root drench approximately 40 ppm a.i./dry soil; applied one or two days before inoculation
Procedure: (§1) The compounds were tested against a variety of foliar fungal diseases of plants. The technique employed was as follows. The plants were grown in John Innes Potting Compost (No 1 or 2) in 4 cm diameter minipots. The test compounds were formulated either by bead milling with aqueous Dispersol T or as a solution in acetone or acetone/ethanol which was diluted to the required concentration immediately before use. For the foliage diseases, the formulations (100 ppm active ingredient) were sprayed on to the foliage and applied to the roots of the plants in the soil. The sprays were applied to maximum retention and the root drenches to a final concentration equivalent to approximately 40 ppm a.i./dry soil. Tween 20, to give a final concentration of 0.05%, was added when the sprays were applied to cereals. For most of the tests the compound was applied to the soil (roots) and to the foliage (by spraying) one or two days before the plant was inoculated with the disease. An exception was the test on Erysiphe graminis in which the plants were inoculated 24 hours before treatment. Foliar pathogens were applied by spray as spore suspensions onto the leaves of test plants. After inoculation, the plants were put into an appropriate environment to allow infection to proceed and then incubated until the disease was ready for assessment. The period between inoculation and assessment varied from four to fourteen days according to the disease and environment. The disease control was recorded by the following grading:- • 4 = no disease • 3 = trace - 5% of disease on untreated plants • 2 = 6-25% of disease on untreated plants • 1 = 26-59% of disease on untreated plants • 0 = 60-100% of disease on untreated plants

[2] = system: PUCCINIA RECONDITA (WHEAT); assay: Foliar fungal disease test on plants (foliar spray plus root drench), Puccinia recondita on wheat; conditions: 100 ppm active ingredient sprayed on foliage, root drench approximately 40 ppm a.i./dry soil; applied one or two days before inoculation
Procedure: as §1

[3] = system: VENTURIA INAEQUALIS (APPLE); assay: Foliar fungal disease test on plants (foliar spray plus root drench), Venturia inaequalis on apple; conditions: 100 ppm active ingredient sprayed on foliage, root drench approximately 40 ppm a.i./dry soil; applied one or two days before inoculation
Procedure: as §1

[4] = system: ERYSIPHE GRAMINIS (BARLEY); assay: Foliar fungal disease test on plants (foliar spray plus root drench), Erysiphe graminis on barley; conditions: 100 ppm active ingredient sprayed on foliage, root drench approximately 40 ppm a.i./dry soil; plants inoculated 24 hours before treatment
Procedure: as §1

## CC(C)(C)c1ccc(C2CC2CC2CCNCC2)cc1 (stereo not drawn) [Compound 1, 4-[2-(p-t-butylphenyl)-cyclopropylmethyl]-piperidine]
[1]
  disease control grading, CERCOSPORA ARACHIDICOLA (PEANUT): 1 (1 = 26-59% of disease on untreated plants)
[2]
  disease control grading, PUCCINIA RECONDITA (WHEAT): 4 (4 = no disease)
[3]
  disease control grading, VENTURIA INAEQUALIS (APPLE): 0 (0 = 60-100% of disease on untreated plants)
[4]
  disease control grading, ERYSIPHE GRAMINIS (BARLEY): 4 (4 = no disease)

## C[C@@H]1CN(C[C@@H]2C[C@H]2c2ccc(C(C)(C)C)cc2)C[C@H](C)O1 (relative stereo) [Compound 4, 4-[2-(p-t-butylphenyl)-trans-cyclopropylmethyl]-2,6-cis-dimethylmorpholine]
[1]
  disease control grading, CERCOSPORA ARACHIDICOLA (PEANUT): 0 (0 = 60-100% of disease on untreated plants)
[2]
  disease control grading, PUCCINIA RECONDITA (WHEAT): 3 (3 = trace - 5% of disease on untreated plants)
[3]
  disease control grading, VENTURIA INAEQUALIS (APPLE): 3 (3 = trace - 5% of disease on untreated plants)
[4]
  disease control grading, ERYSIPHE GRAMINIS (BARLEY): 4 (4 = no disease)

## CC(C)(C)c1ccc(C2C(CN3CCOCC3)C2(C)C)cc1 (stereo not drawn) [Compound 8, 4-[2-(p-t-butylphenyl)-3,3-dimethylcyclopropylmethyl]-morpholine]
[1]
  disease control grading, CERCOSPORA ARACHIDICOLA (PEANUT): 3 (3 = trace - 5% of disease on untreated plants)
[2]
  disease control grading, PUCCINIA RECONDITA (WHEAT): 0 (0 = 60-100% of disease on untreated plants)
[3]
  disease control grading, VENTURIA INAEQUALIS (APPLE): 3 (3 = trace - 5% of disease on untreated plants)
[4]
  disease control grading, ERYSIPHE GRAMINIS (BARLEY): 4 (4 = no disease)

## C[C@@H]1CN(C[C@@H]2C[C@@]2(C)c2ccc(C(C)(C)C)cc2)C[C@H](C)O1 (relative stereo) [Compound 15]
[2]
  disease control grading, PUCCINIA RECONDITA (WHEAT): 3 (3 = trace - 5% of disease on untreated plants)
[3]
  disease control grading, VENTURIA INAEQUALIS (APPLE): 3 (3 = trace - 5% of disease on untreated plants)
[4]
  disease control grading, ERYSIPHE GRAMINIS (BARLEY): 4 (4 = no disease)
